Results taken from patent US20080063643A1, “Peptide Derived From Hepatitis C Virus” (priority 2003, published 2008).

What was measured:
[1] = system: peptide-specific IgG in the serum; assay: ELISA of peptide-specific IgG in sera of HCV patients and healthy donors (Example 1); format: binding, human; conditions: ELISA, cut-off value 1.83; for Healthy donors (n = 10) Positive n: number of 10 healthy donors with serum IgG reactive to the peptide; for HCV patients (n = 12) Positive n: number of 12 HCV patients with serum IgG reactive to the peptide; for Healthy donors (n = 10) Positive %: share of 10 healthy donors with serum IgG reactive to the peptide; for HCV patients (n = 12) Positive %: share of 12 HCV patients with serum IgG reactive to the peptide
Method: Synthetic peptides having an HLA-A2-binding motif or an HLA-A24-binding motif from a conserved region of HCV genotype 1b protein were used in this study (Table 1). A peptide derived from HIV having an HLA-A2-binding motif was used as a negative control. All of these peptides were purchased from a commercially supplier. The purity was analyzed by reverse-phase high-pressure liquid chromatography and found to be 90% or higher.
The level of the peptide-specific IgG in the serum was measured by ELISA. First, each peptide was dissolved in dimethyl sulfoxide (DMSO) and stored at −80° C. The peptide was diluted with 0.1 M sodium carbonate/sodium bicarbonate solution containing disuccinimidyl suberate (DSS) as a crosslinker. An ELISA plate was coated with 20 μg/well of peptide at 4° C. overnight. The wells were washed 3 times with 0.05% Tween 20/PBS (PBST), and the plate was blocked with Block Ace (registered trademark) and left overnight at 4° C. Plasma or serum samples were diluted in 1:100, 1:200 and 1:400 with 0.05% Tween 20/Block Ace, and 100 μl of each of the samples was added to each well. After the samples were incubated at 37° C. for 2 hours, the plate was washed 9 times with PBST, 100 μl of a 1:1000 diluted rabbit anti-human IgG (γ-chain specific) was added to each well, and incubated at 37° C. for 2 hours. The plate was washed 9 times with PBST, and 100 μl of 1:100 diluted mouse anti-rabbit IgG conjugated to a horseradish peroxidase-dextran polymer was added to each well, and then the plate was incubated at room temperature for 40 minutes. After the plate was washed, 100 μl of a tetramethylbenzidine substrate solution was added to each well. The reaction was stopped by the addition of 2.0 M phosphoric acid. The cutoff value was calculated as the mean±3 SD of the optical density values of the control obtained from the healthy donors.
The level of IgG that reacts with each of the 62 types of peptides was measured in the sera from 12 patients infected with HCV and 10 healthy donors (HDs) (Table 1).

peptide-specific IgG = assay: ELISA screening of peptide-reactive IgG in plasma of 12 HCV-1b patients and 10 HDs (Example 2); format: binding, human; conditions: plasma dilution 1:100; for Reactivity to peptide-specific IgG HD (n = 10): number of 10 HDs above cut-off 0.18 OD; for Reactivity to peptide-specific IgG Patients (n = 12): number of 12 HCV-1b+ patients above cut-off 0.18 OD
Source text: Forty-four types of synthetic peptides that were derived from a highly conserved region of HCV-1b protein and selected based on a high binding score to HLA-A24 molecule (Bioinformatics and Molecular Analysis Section, NIH, Bethesda, Md.) were used. A peptide derived from HIV that has an HLA-A24 binding motif ([…] (SEQ ID NO: 63)) served as a negative control. For the screening of the reactivity of peptide to serum IgG, desalted grade of the peptides (>70%) were purchased from BioSynthesis (Lewisville, Tex.) or SynPep (Dublin, Calif.). A purified peptide (>90%) was used in the subsequent experiments. The plasma level of peptide-specific IgG was measured by an enzyme-linked immunosorbent assay (ELISA). The specificity of anti-peptide IgG in a plasma sample was tested by the absorption and elution of peptide-reactive IgG.
In order to screen for a humoral response to the peptides, the level of IgG reactive to each of the 44 types of peptides was assayed in the plasma of 12 patients infected with HCV-1b. The plasma of 10 HDs was used as a negative control. The level of peptide-reactive IgG was measured by ELISA for serially diluted plasma samples and reported by the values of absorbance (OD) of each sample. The cut-off value of these peptides at a plasma dilution of 1:100 was set at 0.18 OD (mean (0.08)+2SD (0.05×2) of 10 HDs). A significant level (>0.18 OD at a plasma dilution of 1:100) of IgG reactive to NS5A-2132, C-176, E2-488, E1-213, C-173 and NS3-1081 peptides were detectable in the plasma of 12, 11, 10, 9, 8 and 5 patients among the 12 patients, respectively (FIG. 9). As expected, none of these peptides was reactive to the plasma from the 10 HDs.

Row | Substance | Healthy donors (n = 10) Positive n [1] | HCV patients (n = 12) Positive n [1] | Healthy donors (n = 10) Positive % [1] [%] | HCV patients (n = 12) Positive % [1] [%] | Reactivity to peptide-specific IgG HD (n = 10) (peptide-specific IgG) | Reactivity to peptide-specific IgG Patients (n = 12) (peptide-specific IgG)
1 | 42 (HYRDVLKEM; Hepatitis C Virus) [Peptide 42] | 0 | 1 | 0 | 8 |  | 
2 | 43 (ILHTPGCV; Hepatitis C Virus) [Peptide 43] | 0 | 3 | 0 | 25 |  | 
3 | 44 (WFMWCLLLL; Hepatitis C Virus) [Peptide 44] | 0 | 0 | 0 | 0 |  | 
4 | 45 (SLLAPGAKQNV; Hepatitis C Virus) [Peptide 45] | 3 | 0 | 30 | 0 |  | 
5 | 47 (LLCPAGHAV; Hepatitis C Virus) [Peptide 47] | 2 | 1 | 20 | 8 |  | 
6 | 52 (ILAGYGAGV; Hepatitis C Virus) [Peptide 52] | 1 | 0 | 10 | 0 |  | 
7 | 55 (GLQDCTMLV; Hepatitis C Virus) [Peptide 55] | 1 | 2 | 10 | 17 |  | 
8 | 56 (ALAHGVRAL; Hepatitis C Virus) [Peptide 56] | 1 | 0 | 10 | 0 |  | 
9 | 57 (NLPGCSFSI; Hepatitis C Virus) [Peptide 57] | 1 | 0 | 10 | 0 |  | 
10 | 61 (HYRDVLKEM; Hepatitis C Virus) [Peptide 61] | 1 | 3 | 10 | 25 |  | 
11 | 62 (WFMWCLLLL; Hepatitis C Virus) [Peptide 62] | 0 | 7 | 0 | 58 |  | 
12 | 66 (QFKQKALGLL; Hepatitis C Virus) [Peptide 66] | 0 | 3 | 0 | 25 |  | 
13 | AFTASITSPL [No. 35] |  |  |  |  | 0 | 0
14 | AFYGVWPLL [No. 63] |  |  |  |  | 0 | 0
15 | AYAAQGYKVL [No. 24] |  |  |  |  | 0 | 2
16 | AYALYGVWPL [No. 26] |  |  |  |  | 0 | 2
17 | AYMSKAHGI [No. 11] |  |  |  |  | 0 | 2
18 | AYSQQTRGL [No. 8] |  |  |  |  | 0 | 0
19 | DFKTWLQSKL [No. 36] |  |  |  |  | 0 | 1
20 | EFWESVFTGL [No. 31] |  |  |  |  | 0 | 0

Row | Substance | Healthy donors (n = 10) Positive n [1] | HCV patients (n = 12) Positive n [1] | Healthy donors (n = 10) Positive % [1] [%] | HCV patients (n = 12) Positive % [1] [%] | Reactivity to peptide-specific IgG HD (n = 10) (peptide-specific IgG) | Reactivity to peptide-specific IgG Patients (n = 12) (peptide-specific IgG)
21 | EYVLLLFLL [No. 4] |  |  |  |  | 0 | 2
22 | FFTEVDGVRL [No. 37] |  |  |  |  | 0 | 1
23 | GYGAGVAGAL [No. 23] |  |  |  |  | 0 | 2
24 | GYIPIVGAPL [No. 19] |  |  |  |  | 0 | 1
25 | HYKLFLARL [No. 9] |  |  |  |  | 0 | 0
26 | HYPCTVNFTI [No. 27] |  |  |  |  | 0 | 2
27 | HYRDVLKEM [No. 61] |  |  |  |  | 1 | 3
28 | HYVQMALMKL [No. 21] |  |  |  |  | 0 | 3
29 | IFTITKILL [No. 18] |  |  |  |  | 0 | 3
30 | LFLARLIWWL [No. 33] |  |  |  |  | 0 | 0
31 | LYGVWPLLL [No. 7] |  |  |  |  | 0 | 0
32 | MYTNVDQDL [No. 5] |  |  |  |  | 0 | 0
33 | MYVGGVEHRL [No. 20] |  |  |  |  | 0 | 0
34 | NFISGIQYL [No. 15] |  |  |  |  | 0 | 0
35 | PYFVRAHGL [No. 16] |  |  |  |  | 0 | 0
36 | PYIEQGMQL [No. 14] |  |  |  |  | 0 | 1
37 | QFKQKAIGL [No. 17] |  |  |  |  | 0 | 3
38 | QFKQKALGL [No. 64] |  |  |  |  | 0 | 1
39 | QFKQKALGLL [No. 66] |  |  |  |  | 0 | 1
40 | QYLAGLSTL [No. 6] |  |  |  |  | 0 | 0
